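Values below derive from 48-hour exposures of cells grown in 96-well plates, with endpoints linearly interpolated between the two concentrations bracketing the appropriate inhibition level. The concentration for 50% growth inhibition is given as GI50.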 Calls of active or inactive are those of the source. Rule as the data show it: active = GI50 up to about 1.1 µM and inactive = higher.
Experiments:
Assay in all cases: NCI-60 cell line screen, 48 h
UACC-257 = tested on: UACC-257
ACHN = tested on: ACHN
SF-268 = tested on: SF-268
OVCAR-8 = tested on: OVCAR-8
HOP-62 = tested on: HOP-62
Malme-3M = tested on: Malme-3M
MCF7 = tested on: MCF7
NCI-H23 = tested on: NCI-H23
HL-60 = tested on: HL-60
SR = tested on: SR
SF-295 = tested on: SF-295
SF-539 = tested on: SF-539
UACC-62 = tested on: UACC-62
SNB-19 = tested on: SNB-19
HT-29 = tested on: HT-29
RXF 393 = tested on: RXF 393
NCI/ADR-RES = tested on: NCI/ADR-RES
U-251 = tested on: U-251
LOX IMVI = tested on: LOX IMVI
Hs-578T = tested on: Hs-578T

Measured: GI50

CNC(=O)N1CN(c2ccccc2)C2(CCN(CCCC(=O)c3ccc(F)cc3)CC2)C1=O
inactive: UACC-257 7.64 µM | ACHN 11.1 µM | SF-268 39.1 µM | OVCAR-8 31.5 µM | HOP-62 8.22 µM | Malme-3M 20 µM | MCF7 3.62 µM | NCI-H23 23.4 µM | HL-60 15.2 µM | SR 21.9 µM | SF-295 16.8 µM | SF-539 13.9 µM | UACC-62 18.7 µM | SNB-19 17.3 µM | HT-29 5.19 µM | RXF 393 20.5 µM | NCI/ADR-RES 17.6 µM | U-251 21.5 µM | LOX IMVI 17.1 µM

O=C(O)c1cc(O)c2c(c1)Cc1cccc(O)c1C2=O
inactive: UACC-257 26.7 µM | ACHN 15.4 µM | SF-268 25.4 µM | OVCAR-8 21.3 µM | HOP-62 19.1 µM | Malme-3M 19.7 µM | MCF7 30.1 µM | NCI-H23 28.1 µM | HL-60 21.1 µM | SR 26.1 µM | SF-295 20.3 µM | UACC-62 19.1 µM | SNB-19 28.6 µM | HT-29 42.9 µM | NCI/ADR-RES 24.9 µM | U-251 17.6 µM

Nc1nc(N)c2ncn(-c3ccc(Cl)cc3)c2n1
inactive: UACC-257 > 100 µM | ACHN 27.7 µM | OVCAR-8 30.1 µM | HOP-62 74.3 µM | Malme-3M 28.4 µM | MCF7 41.3 µM | NCI-H23 61 µM | HL-60 82 µM | SF-295 33.7 µM | SF-539 27.4 µM | UACC-62 29.7 µM | HT-29 35.1 µM | RXF 393 19.3 µM | NCI/ADR-RES 33.7 µM | U-251 49.1 µM | LOX IMVI 36.6 µM

CCN1CCC(C)OP1(=O)Cc1ccccc1 (stereo unspecified)
inactive: UACC-257 > 100 µM | ACHN > 100 µM | SF-268 > 100 µM | OVCAR-8 > 100 µM | HOP-62 > 100 µM | Malme-3M > 100 µM | MCF7 > 100 µM | NCI-H23 > 100 µM | SR > 100 µM | SF-295 > 100 µM | SF-539 > 100 µM | UACC-62 > 100 µM | SNB-19 > 100 µM | HT-29 > 100 µM | NCI/ADR-RES > 100 µM | U-251 > 100 µM | LOX IMVI > 100 µM

COc1ccc2c(c1)CC[C@@H]1[C@@H]2CC[C@]2(C)C(=O)/C(=C/c3ccc(N(C)C)cc3)C[C@@H]12
inactive: ACHN 48.9 µM | SF-268 32.4 µM | HOP-62 20.8 µM | Malme-3M 83.2 µM | NCI-H23 33 µM | HL-60 > 100 µM | SF-295 40.2 µM | SF-539 > 100 µM | UACC-62 32.6 µM | SNB-19 35.6 µM | RXF 393 27 µM | NCI/ADR-RES 33 µM | U-251 46.1 µM

COC(=O)[C@H](Cc1c[nH]c2ccccc12)NP(=O)(O)OCC1C=CC(n2cc(C)c(=O)[nH]c2=O)O1 (stereo partly specified)
inactive: SF-268 > 100 µM | OVCAR-8 > 100 µM | HOP-62 > 100 µM | NCI-H23 > 100 µM | HL-60 > 100 µM | UACC-62 > 100 µM | SNB-19 > 100 µM | HT-29 > 100 µM | Hs-578T > 100 µM | NCI/ADR-RES > 100 µM | U-251 > 100 µM | LOX IMVI > 100 µM

N#C/C(=C\c1cc(Cl)cc(Cl)c1)c1ccccn1
inactive: UACC-257 82.8 µM | ACHN 64.1 µM | SF-268 27.7 µM | OVCAR-8 18 µM | HOP-62 20 µM | Malme-3M > 100 µM | MCF7 5.61 µM | NCI-H23 6.35 µM | HL-60 6.27 µM | SR 6.27 µM | SF-295 10.5 µM | SF-539 19.1 µM | UACC-62 12 µM | SNB-19 > 100 µM | HT-29 18.2 µM | RXF 393 5.11 µM | NCI/ADR-RES 3.93 µM | U-251 7.94 µM

C[C@]12CC[C@@H]3c4ccc(O)cc4CC[C@H]3[C@@H]1C/C(=C\c1ccc([N+](=O)[O-])cc1)C2=O
inactive: UACC-257 34.8 µM | ACHN 61.4 µM | SF-268 52.6 µM | OVCAR-8 34.9 µM | HOP-62 33.7 µM | Malme-3M 67.6 µM | MCF7 52.1 µM | NCI-H23 78.9 µM | SR 65.3 µM | SF-295 > 100 µM | SF-539 29.9 µM | UACC-62 37.8 µM | SNB-19 > 100 µM | HT-29 18.6 µM | RXF 393 15.9 µM | NCI/ADR-RES 59.2 µM | U-251 40.1 µM | LOX IMVI 36.6 µM

Cc1cc(O)nc(CNC(=O)c2cccc3ccccc23)n1
inactive: UACC-257 > 100 µM | ACHN > 100 µM | SF-268 > 100 µM | OVCAR-8 > 100 µM | HOP-62 > 100 µM | Malme-3M > 100 µM | NCI-H23 > 100 µM | HL-60 > 100 µM | SR > 100 µM | SF-295 > 100 µM | SF-539 > 100 µM | UACC-62 > 100 µM | SNB-19 > 100 µM | HT-29 > 100 µM | RXF 393 > 100 µM | U-251 > 100 µM | LOX IMVI > 100 µM

Reference: ChEMBL document CHEMBL1201862, “PubChem BioAssay data set” (2004)
